Test results: publication PMC11062899, “De novo development of small cyclic peptides that are orally bioavailable” (Nature Chemical Biology, 2023)

Molecular target: human α-thrombin (Homo sapiens, UniProt P00734)
Test: Sub-library screen for active and permeable cyclic peptides (PAMPA plus thrombin inhibition)
Format: biochemical
Conditions: crude, slopes normalized to DMSO; for Residual thrombin activity: Top sample: PAMPA acceptor well after 14 h, 5 μM donor; for Residual thrombin activity: Equilibrated sample: donor sample diluted to theoretical equilibrium (1 μM in assay)
Summary of the method: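 Acylated cyclic peptides at 5 μM in PBS pH 7.4 with 5% DMSO were run through PAMPA for 14 h at room temperature. Acceptor wells and a diluted donor sample at 3 μM, representing maximum permeability, were preincubated 10 min with human α-thrombin (6 nM stock). Z-Gly-Gly-Arg-AMC (150 μM stock) fluorescence was then read for 30 min at 25 °C, and inhibition was taken against a no-peptide control.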

Residual thrombin activity: Top sample	Residual thrombin activity: Equilibrated sample	Compound
95.8	96.1	N#Cc1ccc(C[C@@H]2NC(=O)[C@@H](NC(=O)c3ccc(Cl)s3)CCSCc3cccc(n3)CSCCNC(=O)C[C@H]3CCCN3C2=O)cc1 [C2-X35-L1]
102.9	100.1	N#Cc1ccc(C[C@@H]2NC(=O)[C@@H](NC(=O)c3ccc(Cl)s3)CCSCCS(=O)(=O)CCSCCNC(=O)C[C@H]3CCCN3C2=O)cc1 [C2-X35-L2]
101.8	100.4	N#Cc1ccc(C[C@@H]2NC(=O)[C@@H](NC(=O)c3ccc(Cl)s3)CCSCc3ccc(cc3)CSCCNC(=O)C[C@H]3CCCN3C2=O)cc1 [C2-X35-L3]
100.5	100.3	N#Cc1ccc(C[C@@H]2NC(=O)[C@@H](NC(=O)c3ccc(Cl)s3)CCSC/C=C/CSCCNC(=O)C[C@H]3CCCN3C2=O)cc1 [C2-X35-L4]
106.2	101.3	N#Cc1ccc(C[C@@H]2NC(=O)[C@@H](NC(=O)c3ccc(Cl)s3)CCSCc3cccc(c3)CSCCNC(=O)C[C@H]3CCCN3C2=O)cc1 [C2-X35-L5]
90.0	91.7	N#Cc1ccc(C[C@@H]2NC(=O)[C@@H](NC(=O)c3ccc(Cl)s3)CCSCc3ccccc3CSCCNC(=O)C[C@H]3CCCN3C2=O)cc1 [C2-X35-L6]
103.0	104.7	N#Cc1ccc(C[C@@H]2NC(=O)[C@@H](NC(=O)c3ccc(Cl)s3)CCSCC(=O)CSCCNC(=O)C[C@H]3CCCN3C2=O)cc1 [C2-X35-L7]
95.5	97.7	O=C1C[C@H]2CCCN2C(=O)[C@H](Cc2ccc(C(F)(F)F)cc2)NC(=O)[C@@H](NC(=O)c2ccc(Cl)s2)CCSCc2cccc(n2)CSCCN1 [C2-X36-L1]
101.5	101.8	O=C1C[C@H]2CCCN2C(=O)[C@H](Cc2ccc(C(F)(F)F)cc2)NC(=O)[C@@H](NC(=O)c2ccc(Cl)s2)CCSCCS(=O)(=O)CCSCCN1 [C2-X36-L2]
95.8	101.3	O=C1C[C@H]2CCCN2C(=O)[C@H](Cc2ccc(C(F)(F)F)cc2)NC(=O)[C@@H](NC(=O)c2ccc(Cl)s2)CCSCc2ccc(cc2)CSCCN1 [C2-X36-L3]
103.3	101.3	O=C1C[C@H]2CCCN2C(=O)[C@H](Cc2ccc(C(F)(F)F)cc2)NC(=O)[C@@H](NC(=O)c2ccc(Cl)s2)CCSC/C=C/CSCCN1 [C2-X36-L4]
106.2	106.1	O=C1C[C@H]2CCCN2C(=O)[C@H](Cc2ccc(C(F)(F)F)cc2)NC(=O)[C@@H](NC(=O)c2ccc(Cl)s2)CCSCc2cccc(c2)CSCCN1 [C2-X36-L5]
96.8	97.9	O=C1C[C@H]2CCCN2C(=O)[C@H](Cc2ccc(C(F)(F)F)cc2)NC(=O)[C@@H](NC(=O)c2ccc(Cl)s2)CCSCc2ccccc2CSCCN1 [C2-X36-L6]
102.7	104.5	O=C1CSCCNC(=O)C[C@H]2CCCN2C(=O)[C@H](Cc2ccc(C(F)(F)F)cc2)NC(=O)[C@@H](NC(=O)c2ccc(Cl)s2)CCSC1 [C2-X36-L7]
88.2	83.3	Cc1cccc(C[C@@H]2NC(=O)[C@@H](NC(=O)c3ccc(Cl)s3)CCSCc3cccc(n3)CSCCNC(=O)C[C@H]3CCCN3C2=O)c1 [C2-X37-L1]

The next lines start with the molecule.

Compound	Residual thrombin activity: Top sample	Residual thrombin activity: Equilibrated sample
O=C1C[C@H]2CCCN2C(=O)[C@@H](Cc2ccccc2)NC(=O)[C@@H](NC(=O)c2ccc(Cl)s2)CCSC/C=C/CSCCN1 [C2-X31-L4]	98.4	104.3
O=C1C[C@H]2CCCN2C(=O)[C@@H](Cc2ccccc2)NC(=O)[C@@H](NC(=O)c2ccc(Cl)s2)CCSCc2cccc(c2)CSCCN1 [C2-X31-L5]	105.0	96.6
O=C1C[C@H]2CCCN2C(=O)[C@@H](Cc2ccccc2)NC(=O)[C@@H](NC(=O)c2ccc(Cl)s2)CCSCc2ccccc2CSCCN1 [C2-X31-L6]	92.4	88.8
O=C1CSCCNC(=O)C[C@H]2CCCN2C(=O)[C@@H](Cc2ccccc2)NC(=O)[C@@H](NC(=O)c2ccc(Cl)s2)CCSC1 [C2-X31-L7]	102.6	101.7
CN1C(=O)[C@@H](NC(=O)c2ccc(Cl)s2)CCSCc2cccc(n2)CSCCNC(=O)C[C@H]2CCCN2C(=O)[C@@H]1Cc1ccccc1 [C2-X32-L1]	92.7	101.7
CN1C(=O)[C@@H](NC(=O)c2ccc(Cl)s2)CCSCCS(=O)(=O)CCSCCNC(=O)C[C@H]2CCCN2C(=O)[C@@H]1Cc1ccccc1 [C2-X32-L2]	93.7	100.8
CN1C(=O)[C@@H](NC(=O)c2ccc(Cl)s2)CCSCc2ccc(cc2)CSCCNC(=O)C[C@H]2CCCN2C(=O)[C@@H]1Cc1ccccc1 [C2-X32-L3]	97.8	96.9
CN1C(=O)[C@@H](NC(=O)c2ccc(Cl)s2)CCSC/C=C/CSCCNC(=O)C[C@H]2CCCN2C(=O)[C@@H]1Cc1ccccc1 [C2-X32-L4]	99.0	101.4
CN1C(=O)[C@@H](NC(=O)c2ccc(Cl)s2)CCSCc2cccc(c2)CSCCNC(=O)C[C@H]2CCCN2C(=O)[C@@H]1Cc1ccccc1 [C2-X32-L5]	104.7	100.8
CN1C(=O)[C@@H](NC(=O)c2ccc(Cl)s2)CCSCc2ccccc2CSCCNC(=O)C[C@H]2CCCN2C(=O)[C@@H]1Cc1ccccc1 [C2-X32-L6]	94.2	95.9
CN1C(=O)[C@@H](NC(=O)c2ccc(Cl)s2)CCSCC(=O)CSCCNC(=O)C[C@H]2CCCN2C(=O)[C@@H]1Cc1ccccc1 [C2-X32-L7]	101.9	101.7
COc1ccc(C[C@@H]2NC(=O)[C@@H](NC(=O)c3ccc(Cl)s3)CCSCc3cccc(n3)CSCCNC(=O)C[C@H]3CCCN3C2=O)cc1 [C2-X33-L1]	95.4	94.0
COc1ccc(C[C@@H]2NC(=O)[C@@H](NC(=O)c3ccc(Cl)s3)CCSCCS(=O)(=O)CCSCCNC(=O)C[C@H]3CCCN3C2=O)cc1 [C2-X33-L2]	98.8	98.9
COc1ccc(C[C@@H]2NC(=O)[C@@H](NC(=O)c3ccc(Cl)s3)CCSCc3ccc(cc3)CSCCNC(=O)C[C@H]3CCCN3C2=O)cc1 [C2-X33-L3]	100.8	99.6
COc1ccc(C[C@@H]2NC(=O)[C@@H](NC(=O)c3ccc(Cl)s3)CCSC/C=C/CSCCNC(=O)C[C@H]3CCCN3C2=O)cc1 [C2-X33-L4]	100.6	93.7
COc1ccc(C[C@@H]2NC(=O)[C@@H](NC(=O)c3ccc(Cl)s3)CCSCc3cccc(c3)CSCCNC(=O)C[C@H]3CCCN3C2=O)cc1 [C2-X33-L5]	104.9	49.9
COc1ccc(C[C@@H]2NC(=O)[C@@H](NC(=O)c3ccc(Cl)s3)CCSCc3ccccc3CSCCNC(=O)C[C@H]3CCCN3C2=O)cc1 [C2-X33-L6]	92.7	95.5
COc1ccc(C[C@@H]2NC(=O)[C@@H](NC(=O)c3ccc(Cl)s3)CCSCC(=O)CSCCNC(=O)C[C@H]3CCCN3C2=O)cc1 [C2-X33-L7]	102.7	99.9
O=C1C[C@H]2CCCN2C(=O)[C@H](Cc2ccc(Cl)cc2)NC(=O)[C@@H](NC(=O)c2ccc(Cl)s2)CCSCc2cccc(n2)CSCCN1 [C2-X34-L1]	87.1	93.9
O=C1C[C@H]2CCCN2C(=O)[C@H](Cc2ccc(Cl)cc2)NC(=O)[C@@H](NC(=O)c2ccc(Cl)s2)CCSCCS(=O)(=O)CCSCCN1 [C2-X34-L2]	99.3	99.5
O=C1C[C@H]2CCCN2C(=O)[C@H](Cc2ccc(Cl)cc2)NC(=O)[C@@H](NC(=O)c2ccc(Cl)s2)CCSCc2ccc(cc2)CSCCN1 [C2-X34-L3]	99.4	99.1
O=C1C[C@H]2CCCN2C(=O)[C@H](Cc2ccc(Cl)cc2)NC(=O)[C@@H](NC(=O)c2ccc(Cl)s2)CCSC/C=C/CSCCN1 [C2-X34-L4]	98.6	98.5
O=C1C[C@H]2CCCN2C(=O)[C@H](Cc2ccc(Cl)cc2)NC(=O)[C@@H](NC(=O)c2ccc(Cl)s2)CCSCc2cccc(c2)CSCCN1 [C2-X34-L5]	106.3	106.4
O=C1C[C@H]2CCCN2C(=O)[C@H](Cc2ccc(Cl)cc2)NC(=O)[C@@H](NC(=O)c2ccc(Cl)s2)CCSCc2ccccc2CSCCN1 [C2-X34-L6]	93.6	95.7
O=C1CSCCNC(=O)C[C@H]2CCCN2C(=O)[C@H](Cc2ccc(Cl)cc2)NC(=O)[C@@H](NC(=O)c2ccc(Cl)s2)CCSC1 [C2-X34-L7]	104.6	101.4
